Experimental data published in ChEMBL document CHEMBL4265938, “Donepezil-based multi-functional cholinesterase inhibitors for treatment of Alzheimer's disease” (Eur J Med Chem, 2018).
pIC50: −log10 of the molar value.

What was measured:
Acetylcholinesterase [1] = molecular target: T1, Acetylcholinesterase (Homo sapiens, UniProt P22303); experiment: Inhibition of recombinant human AChE using acetylthiocholine iodide as substrate preincubated for 20 mins followed by substrate addition measured after 5 mins by Ellman's method
Beta-secretase 1 = Beta-secretase 1 (Homo sapiens, UniProt P56817); experiment: Inhibition of BACE-1 (unknown origin)
[2] = molecular target: T2, Amine oxidase [flavin-containing] A (Homo sapiens, UniProt P21397); experiment: Inhibition of human MAOA
T2 sequence (P21397 whole entry): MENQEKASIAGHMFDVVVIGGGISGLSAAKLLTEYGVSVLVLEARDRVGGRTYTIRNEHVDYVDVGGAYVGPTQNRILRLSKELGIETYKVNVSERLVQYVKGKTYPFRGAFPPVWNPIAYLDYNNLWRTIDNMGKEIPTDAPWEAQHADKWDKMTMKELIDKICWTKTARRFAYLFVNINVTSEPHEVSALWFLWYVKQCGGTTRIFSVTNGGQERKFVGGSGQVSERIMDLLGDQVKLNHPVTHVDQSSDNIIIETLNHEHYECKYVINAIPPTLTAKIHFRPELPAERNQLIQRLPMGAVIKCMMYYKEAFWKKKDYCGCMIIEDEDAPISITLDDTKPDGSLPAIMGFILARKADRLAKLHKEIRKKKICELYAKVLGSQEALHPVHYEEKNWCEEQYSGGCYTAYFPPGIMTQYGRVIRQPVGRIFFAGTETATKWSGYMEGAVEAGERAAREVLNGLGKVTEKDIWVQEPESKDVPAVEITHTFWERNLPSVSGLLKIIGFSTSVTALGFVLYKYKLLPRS

Acetylcholinesterase [3] = molecular target: T3, Acetylcholinesterase (Electrophorus electricus, UniProt O42275); experiment: Inhibition of electric eel AChE
Cholinesterase [4] = molecular target: T4, Cholinesterase (Equus caballus, UniProt P81908); experiment: Inhibition of equine serum BuChE
[5] = Effective permeability of the compound; type: ADME; settings: not told; read-out: Peff
[6] = molecular target: T5, Amine oxidase [flavin-containing] B (Homo sapiens, UniProt P27338); experiment: Inhibition of human MAOB
T5 sequence (P27338 whole entry): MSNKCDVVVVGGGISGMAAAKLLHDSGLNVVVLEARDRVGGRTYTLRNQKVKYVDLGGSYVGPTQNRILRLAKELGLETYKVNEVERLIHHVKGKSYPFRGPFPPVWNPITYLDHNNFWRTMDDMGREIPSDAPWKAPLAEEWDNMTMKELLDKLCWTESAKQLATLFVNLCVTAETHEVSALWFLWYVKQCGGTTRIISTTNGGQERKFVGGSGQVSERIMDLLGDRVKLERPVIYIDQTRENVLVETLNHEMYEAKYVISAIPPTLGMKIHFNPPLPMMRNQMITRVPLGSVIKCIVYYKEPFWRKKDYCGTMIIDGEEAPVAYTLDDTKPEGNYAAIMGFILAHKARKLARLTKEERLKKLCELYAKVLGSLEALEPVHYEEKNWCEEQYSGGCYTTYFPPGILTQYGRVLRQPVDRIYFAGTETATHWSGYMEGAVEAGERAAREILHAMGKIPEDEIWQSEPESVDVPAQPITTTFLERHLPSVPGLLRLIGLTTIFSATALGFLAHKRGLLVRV

[7] = Antioxidant activity assessed as trolox equivalent of AAPH-induced radical scavenging activity at 70 nM preincubated for 15 mins followed by AAPH addition measured every min for 80 mins by ORAC-FL assay; type: functional
Acetylcholinesterase [8] = molecular target: T3, Acetylcholinesterase; experiment: Inhibition of electric eel AChE using acetylthiocholine iodide as substrate preincubated for 20 mins followed by substrate addition measured after 5 mins by Ellman's method
[9] = molecular target: T5, Amine oxidase [flavin-containing] B; experiment: Inhibition of recombinant human MAOB using tyramine hydrochloride as substrate preincubated for 30 mins followed by substrate addition measured for 1 hr by fluorometric method
Cholinesterase [10] = molecular target: T4, Cholinesterase; experiment: Inhibition of equine serum BuChE using butyrylthiocholine iodide as substrate preincubated for 20 mins followed by substrate addition measured after 30 mins by Ellman's method
[11] = Selectivity ratio of IC50 for electric eel AChE to IC50 for equine serum BuChE
Cholinesterase [12] = molecular target: T4, Cholinesterase; experiment: Mixed type inhibition of equine serum BuChE
Acetylcholinesterase [13] = molecular target: T3, Acetylcholinesterase; experiment: Mixed type inhibition of electric eel AChE
[14] = molecular target: Amyloid-beta precursor protein (Homo sapiens) (UniProt P05067); experiment: Inhibition of recombinant human HFIP-pretreated amyloid beta (1 to 42) self aggregation at 10 uM after 24 hrs by ThT-based fluorometric method relative to control
Acetylcholinesterase [15] = molecular target: T1, Acetylcholinesterase; experiment: Inhibition of recombinant human AChE using acetylthiocholine iodide as substrate preincubated for 5 mins followed by substrate addition measured after 5 mins by Ellman's method
Acetylcholinesterase [16] = molecular target: T3, Acetylcholinesterase; experiment: Inhibition of electric eel AChE using acetylthiocholine iodide as substrate preincubated for 5 mins followed by substrate addition measured after 5 mins by Ellman's method

T4 sequence (P81908 whole entry): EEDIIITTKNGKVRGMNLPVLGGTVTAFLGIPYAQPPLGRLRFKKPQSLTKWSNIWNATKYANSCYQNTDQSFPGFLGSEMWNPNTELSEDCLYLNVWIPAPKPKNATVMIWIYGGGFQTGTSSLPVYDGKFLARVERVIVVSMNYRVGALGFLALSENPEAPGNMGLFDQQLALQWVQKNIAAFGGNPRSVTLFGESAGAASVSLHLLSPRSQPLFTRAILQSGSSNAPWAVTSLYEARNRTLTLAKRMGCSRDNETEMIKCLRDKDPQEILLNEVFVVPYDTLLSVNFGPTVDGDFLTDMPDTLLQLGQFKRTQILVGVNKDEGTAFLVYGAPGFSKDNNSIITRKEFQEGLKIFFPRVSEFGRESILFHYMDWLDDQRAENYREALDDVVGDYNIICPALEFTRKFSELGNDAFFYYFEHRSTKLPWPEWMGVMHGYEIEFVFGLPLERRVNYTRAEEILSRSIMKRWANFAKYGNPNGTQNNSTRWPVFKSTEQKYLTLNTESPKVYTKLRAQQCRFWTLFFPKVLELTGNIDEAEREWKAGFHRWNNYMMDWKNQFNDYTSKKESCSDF
T3 sequence (O42275 whole entry): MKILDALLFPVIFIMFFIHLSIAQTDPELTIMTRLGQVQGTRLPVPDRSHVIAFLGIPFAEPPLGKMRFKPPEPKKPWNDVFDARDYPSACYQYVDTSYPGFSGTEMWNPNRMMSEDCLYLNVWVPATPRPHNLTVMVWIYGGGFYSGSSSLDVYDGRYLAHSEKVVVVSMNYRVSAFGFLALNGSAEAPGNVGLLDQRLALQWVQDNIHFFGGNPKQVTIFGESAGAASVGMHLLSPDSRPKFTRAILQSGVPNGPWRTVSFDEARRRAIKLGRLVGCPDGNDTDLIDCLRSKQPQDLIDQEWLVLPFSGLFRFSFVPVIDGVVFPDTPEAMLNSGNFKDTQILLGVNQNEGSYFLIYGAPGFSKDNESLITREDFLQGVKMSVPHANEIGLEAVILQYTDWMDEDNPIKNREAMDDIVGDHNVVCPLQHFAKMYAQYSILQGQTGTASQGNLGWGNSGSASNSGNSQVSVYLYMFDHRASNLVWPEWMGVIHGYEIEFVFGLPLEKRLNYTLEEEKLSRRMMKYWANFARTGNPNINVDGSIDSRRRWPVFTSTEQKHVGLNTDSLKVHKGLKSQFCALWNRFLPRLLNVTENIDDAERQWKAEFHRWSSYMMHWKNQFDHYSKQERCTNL
T1 sequence (P22303 whole entry): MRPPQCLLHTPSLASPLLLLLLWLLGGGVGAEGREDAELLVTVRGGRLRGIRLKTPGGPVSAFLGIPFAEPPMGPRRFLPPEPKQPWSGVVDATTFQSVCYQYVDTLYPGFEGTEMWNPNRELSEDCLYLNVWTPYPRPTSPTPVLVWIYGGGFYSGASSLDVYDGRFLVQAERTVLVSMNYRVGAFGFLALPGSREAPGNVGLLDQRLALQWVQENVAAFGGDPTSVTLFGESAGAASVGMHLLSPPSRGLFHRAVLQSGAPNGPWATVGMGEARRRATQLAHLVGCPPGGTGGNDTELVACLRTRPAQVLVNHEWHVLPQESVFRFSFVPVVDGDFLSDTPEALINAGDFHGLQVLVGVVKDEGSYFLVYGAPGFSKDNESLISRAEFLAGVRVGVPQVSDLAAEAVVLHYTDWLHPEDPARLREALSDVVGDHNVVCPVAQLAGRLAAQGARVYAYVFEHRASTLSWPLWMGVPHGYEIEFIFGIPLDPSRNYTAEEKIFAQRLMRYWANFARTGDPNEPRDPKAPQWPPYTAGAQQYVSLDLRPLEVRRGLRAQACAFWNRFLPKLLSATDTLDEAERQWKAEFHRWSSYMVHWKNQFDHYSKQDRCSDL
Beta-secretase 1, sequence (P56817 whole entry): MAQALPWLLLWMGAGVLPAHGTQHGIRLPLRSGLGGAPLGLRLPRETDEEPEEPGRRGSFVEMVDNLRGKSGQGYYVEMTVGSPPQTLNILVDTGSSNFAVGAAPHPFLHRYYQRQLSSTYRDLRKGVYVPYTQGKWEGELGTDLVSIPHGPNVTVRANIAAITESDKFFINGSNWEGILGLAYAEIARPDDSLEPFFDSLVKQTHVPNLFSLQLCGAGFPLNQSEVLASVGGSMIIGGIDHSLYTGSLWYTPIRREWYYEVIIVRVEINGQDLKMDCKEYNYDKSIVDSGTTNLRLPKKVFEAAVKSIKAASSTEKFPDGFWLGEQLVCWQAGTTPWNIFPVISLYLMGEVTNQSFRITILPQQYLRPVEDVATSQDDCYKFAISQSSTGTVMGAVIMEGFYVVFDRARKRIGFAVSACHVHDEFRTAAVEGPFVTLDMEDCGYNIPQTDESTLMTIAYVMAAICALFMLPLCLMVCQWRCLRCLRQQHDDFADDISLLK
Amyloid-beta precursor protein (Homo sapiens), sequence (P05067 whole entry): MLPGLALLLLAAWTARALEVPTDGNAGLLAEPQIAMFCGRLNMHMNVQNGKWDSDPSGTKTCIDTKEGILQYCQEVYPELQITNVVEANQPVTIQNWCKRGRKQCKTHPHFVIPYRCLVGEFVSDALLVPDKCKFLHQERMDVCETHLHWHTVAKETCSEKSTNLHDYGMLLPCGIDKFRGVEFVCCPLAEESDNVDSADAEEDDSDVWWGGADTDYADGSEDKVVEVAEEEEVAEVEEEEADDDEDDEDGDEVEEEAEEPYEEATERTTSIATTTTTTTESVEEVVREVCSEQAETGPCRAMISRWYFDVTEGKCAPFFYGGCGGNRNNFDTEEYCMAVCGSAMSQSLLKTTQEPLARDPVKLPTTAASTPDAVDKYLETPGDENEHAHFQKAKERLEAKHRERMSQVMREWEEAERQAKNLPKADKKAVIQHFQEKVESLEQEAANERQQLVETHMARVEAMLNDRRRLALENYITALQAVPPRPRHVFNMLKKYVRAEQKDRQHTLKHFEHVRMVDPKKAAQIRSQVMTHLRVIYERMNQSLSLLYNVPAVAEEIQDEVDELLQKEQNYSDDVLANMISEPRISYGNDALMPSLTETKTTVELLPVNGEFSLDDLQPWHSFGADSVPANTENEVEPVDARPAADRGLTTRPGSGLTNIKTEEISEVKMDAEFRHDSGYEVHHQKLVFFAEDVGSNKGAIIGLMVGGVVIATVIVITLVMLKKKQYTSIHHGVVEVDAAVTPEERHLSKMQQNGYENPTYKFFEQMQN

Work on C#CCNc1nc(NCCCCC2CCN(Cc3ccccc3)CC2)c(C#N)cc1C#N yielded a pIC50 (Acetylcholinesterase [1]) of 9.00.
Work on COc1cc2c(cc1OC)C(=O)/C(=C/C1CCN(Cc3ccccc3)CC1)C2 yielded a pIC50 (Beta-secretase 1) of 6.16.
For COc1ccc2c(c1)C/C(=C\C1CCN(Cc3ccccc3)CC1)C2=O, the pIC50 (Beta-secretase 1) was 6.48.
Compound O=C(NCCC1CCN(Cc2ccccc2)CC1)c1ccc(Cl)cn1 has a pIC50 [2] of 4.87, a pIC50 (Acetylcholinesterase [3]) of 6.66 and a pIC50 (Cholinesterase [4]) of 5.91. The Papp [5] was 10.4 ×10⁻⁶ cm/s and the pIC50 [6] was 5.50.
With COc1cc(/C=C/C(=O)N(CCCC2CCN(Cc3ccccc3)CC2)CC(=O)Nc2c(C)cccc2Cl)ccc1O the pIC50 (Acetylcholinesterase [3]) was 7.53, the pIC50 (Cholinesterase [4]) was 7.28 and the Activity [7] was 5.32 equiv.
In the case of C#CCNc1nc(NCCCC2CCN(Cc3ccccc3)CC2)c(C#N)cc1C#N, the pIC50 (Acetylcholinesterase [8]) was 8.96, the pIC50 [9] was 5.40 and the pIC50 (Cholinesterase [10]) was 6.22.
Compound Cn1c(=O)n(C)c2cc(S(=O)(=O)NCC3CCN(Cc4ccc(F)cc4)CC3)ccc21 has a Ratio IC50 [11] of 66.1, a pIC50 (Cholinesterase [12]) of 7.51 and a pIC50 (Acetylcholinesterase [13]) of 5.69.
CN(CCCCCN1C(=O)c2ccccc2S1(=O)=O)Cc1ccccc1 showed an inhibition [14] of 22.2%, a pIC50 (Acetylcholinesterase [15]) of 7.48 and a pIC50 (Acetylcholinesterase [16]) of 7.44.
